Reference: paper PMC10095824, “Design and Synthesis of 3-(β-D-Glucopyranosyl)-4-amino/4-guanidino Pyrazole Derivatives and Analysis of Their Glycogen Phosphorylase Inhibitory Potential” (Molecules, 2023)
Read-outs that look alike come from different tables or passages of the source.

Columns and labels:
[1] = target: T1, rabbit muscle glycogen phosphorylase b (rmGPb) (Oryctolagus cuniculus, UniProt P00489); set-up: method as in PMID 26713107; settings: cited from earlier work
T1 sequence (P00489 1-843): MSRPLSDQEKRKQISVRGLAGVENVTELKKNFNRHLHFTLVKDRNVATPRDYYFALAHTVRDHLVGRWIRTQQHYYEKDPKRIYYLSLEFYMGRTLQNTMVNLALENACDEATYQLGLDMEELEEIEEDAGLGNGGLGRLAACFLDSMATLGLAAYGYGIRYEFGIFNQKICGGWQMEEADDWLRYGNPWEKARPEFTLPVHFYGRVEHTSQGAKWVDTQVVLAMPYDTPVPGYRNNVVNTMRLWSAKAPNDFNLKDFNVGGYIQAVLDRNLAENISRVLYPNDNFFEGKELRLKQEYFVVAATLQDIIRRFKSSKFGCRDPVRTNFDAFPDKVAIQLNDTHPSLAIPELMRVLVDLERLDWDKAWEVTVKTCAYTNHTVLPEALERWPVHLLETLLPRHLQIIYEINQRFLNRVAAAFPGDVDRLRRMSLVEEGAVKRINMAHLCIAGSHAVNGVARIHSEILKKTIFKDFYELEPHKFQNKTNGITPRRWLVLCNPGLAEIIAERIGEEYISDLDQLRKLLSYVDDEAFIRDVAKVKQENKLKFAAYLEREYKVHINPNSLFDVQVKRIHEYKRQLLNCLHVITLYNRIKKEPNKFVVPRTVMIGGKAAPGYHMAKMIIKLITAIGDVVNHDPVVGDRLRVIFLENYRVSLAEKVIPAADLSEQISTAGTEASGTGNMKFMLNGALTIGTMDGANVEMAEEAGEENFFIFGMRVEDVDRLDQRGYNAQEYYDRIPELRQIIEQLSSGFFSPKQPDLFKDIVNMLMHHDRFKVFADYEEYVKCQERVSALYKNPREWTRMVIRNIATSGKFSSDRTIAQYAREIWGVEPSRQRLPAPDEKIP

[2] = target: T1, rabbit muscle glycogen phosphorylase b (rmGPb); test: Glycogen phosphorylase binding assay (enzyme kinetics in the direction of glycogen synthesis); type: biochemical
Description: The determined IC50 values are shown in Table 1, together with the previously determined Ki value for benchmark compound 1. […] Towards understanding the observed potencies, extensive computations on the bound and unbound states of the ligands were performed.
Enzyme activity was assayed into the direction of glycogen synthesis as previously presented. Kinetic data were collected using the muscle phosphorylase b (dephosphorylated, GPb) isoform. Kinetic data for the inhibition of GPb by the compounds were obtained in the presence of 10 μg/mL enzyme, varying concentrations of α-D-glucose-1-phosphate (4–40 mM), constant concentration (1%) of glycogen and AMP (1 mM). Enzymatic activities were presented in the form of a double-reciprocal plot (Lineweaver-Burk). The plots were analysed by a non-linear data analysis program. The inhibitor constants (Ki) were determined by secondary plots, replotting the slopes from the Lineweaver-Burk plot against the inhibitor concentrations. The means of standard errors for all calculated kinetic parameters averaged to less than 10% [48, 49].

For OC[C@H]1O[C@@H](c2cc(-c3ccccc3)n[nH]2)[C@H](O)[C@@H](O)[C@@H]1O [Compound 2], the IC50 [1] is listed as 850 µM.

Work on Nc1c([C@@H]2O[C@H](CO)[C@@H](O)[C@H](O)[C@H]2O)n[nH]c1-c1ccccc1 [Compound 3, 4-Amino-3-(β-D -glucopyranosyl)-5-phenyl-1H-pyrazole] yielded an IC50 ([2]; rmGPb) of 565 µM.

With N=C(N)Nc1c([C@@H]2O[C@H](CO)[C@@H](O)[C@H](O)[C@H]2O)n[nH]c1-c1ccccc1 [Compound 4, 3-(β-D -Glucopyranosyl)-4-guanidino-5-phenyl-1H-pyrazole] the “inhibition of rmGPb” value ([2]; at 625 µM concentration, 625 µM) was “no inhibition at 625 µM”.
